These results are taken from patent publication US7776312B2, “Method of treating Alzheimer's disease comprising administering deferoxamine (DFO) to the upper one-third of the nasal cavity” (HealthPartners Research Foundation, priority 2004, dated 2010).

Data set [1] can be described thus: Intranasal delivery of DFO (59Fe-labeled ferrioxamine), tissue concentrations by scintillation counting. The data set is classed as in vivo, rats. The settings on record: rat, 6 mg, intranasal ~6 mg, 25 min. after onset of delivery. The text has this: Following delivery, tissues were removed for analysis.
Data set [2] has as its system middle cerebral artery occlusion (MCAO). The experiment in a line: Pre-stroke intranasal DFO, 2-hour middle cerebral artery occlusion (MCAO), infarct volume by TTC staining. It is filed as in vivo, rats. The settings on record: for total infarct volume: rats.
The test system of data set [3] is hypoxia-inducible factor-1α (HIF-1α). Briefly: Western blot of brain proteins for HIF-1α after intranasal DFO. The data set is classed as in vivo. The settings on record: rats, Western blot quantitation. The text has this: Intranasal DFO reduced infarct volumes by 60% when expressed as either total infarct, cortical infarct, or striatal infarct volume. Brain proteins from olfactory bulb and from striatum were subjected to Western blot analysis for hypoxia-inducible factor-1α (HIF-1α). See FIG. 1 for a bar graph illustrating the results (10) for control animals (C) and pretreated animals (P). The results are shown broken into the cortex (12), striatum (14) and overall total (16) infarct volumes for control/pretreated animals. […] Here, the control animals' (C) total infarct volume is 175.93 mm^3 (18), while the pretreated animals' (P) total infarct volume is 70.57 mm^3 (20). Thus, a reduction of 60% in infarct volume is realized by way of this pretreatment regimen.
Additional brain samples from animals treated with intranasal DFO were generated, total RNA was isolated from olfactory bulb and striatum, and cDNA was generated using primers specific for HIF-1α.
In general terms: A western blot detects proteins with antibodies after separation by electrophoresis.

For data set [4], the system named is middle cerebral artery occlusion (MCAO). Briefly: Post-stroke intranasal DFO at start of reperfusion after MCAO, infarct volume. It is filed as in vivo, rats. The method, then: In this regard, let us now turn to FIG. 4. Here, the experimental method is as follows: The method is the same as described above in connection with FIG. 1, except that the subjects are not pretreated. […] Six doses of 10% DFO (6 mg DFO/dose) were administered in this manner; three doses of 10% DFO at 2-hour intervals on the day of surgery and the remaining three doses of 10% DFO at three-hour intervals on the day following surgery (40).

Data set [5] shares this test system. Briefly: Intranasal DFO pretreatment, infarct volume and brain swelling 24 hours after MCAO. The data set is classed as in vivo, rats. The settings on record: 3 doses of 60 μl 10% intranasal DFO 48 hours before MCAO. The procedure: Further, another experiment was conducted to further discover the mechanisms that may be manipulated in order to achieve the desired therapeutic results. Thus, rats were treated with 3 doses of 60 μl 10% intranasal deferoxamine (DFO), or water, at 3 hours intervals. The two groups of rats were either sacrificed or subjected to a 2-hour Middle Cerebral Artery Occlusion (MCAO) 48 hours later. Those rats undergoing the MCAO were sacrificed 24 hours after the MCAO.
In addition to the bioarray and PCR results, total infarct volume, cortical infarct volume and brain swelling were assessed for the rats pretreated with intranasal DFO with stroke and untreated rats with stroke 24 hours after MCAO.

For data set [6] the following is noted: humans, intravenous; cited from earlier work.
The conditions of data set [7]: cited from earlier work.
Where [8] appears, read: one dose of 10% DFO intranasal pre-stroke, 5 days after MCAO.
Where [9] appears, read: three doses of 3% DFO intranasal pre-stroke.
Setting [10] is: three doses of 10% DFO intranasal pre-stroke, 5 days after MCAO.

Read-outs that look alike come from different tables or passages of the source.

`CC(=O)N(O)CCCCCNC(=O)CCC(=O)N(O)CCCCCNC(=O)CCC(=O)N(O)CCCCCN` [DFO, deferoxamine]: the concentration at 25 min in data set [1] (olfactory epithelium, read-out: DFO concentration, Olfactory Epithelium) turned out to be 12000 µM; in data set [1] (septal nucleus, read-out: DFO concentration, Septal Nucleus), 2.6 µM; in data set [1] (thalamus, read-out: DFO concentration, Thalamus), 1.1 µM. For the same molecule, the “overall infarct volume reduction” value in data set [2] (setting [8]) was 26%. Moreover, the total infarct volume in data set [2] (setting [8]) stood at 86.72 mm^3; in data set [2] (setting [9]), 101.83 mm^3; in data set [2] (three doses of 10% DFO (6 mg each) intranasal 48 hours before 2-hour MCAO, 5 days after MCAO), 70.57 mm^3; in data set [4] (rats, six doses of 10% DFO (6 mg/dose) intranasal post-stroke from start of reperfusion), 116 mm^3. Also, the “reduction of total infarct volume” value in data set [2] (setting [9]) stood at 35%; in data set [2] (three doses of 10% DFO intranasal pre-stroke, 5 days after MCAO, vs distilled water controls) it was 60%; in data set [4] (six doses of 10% DFO intranasal post-stroke) it was 55%. In addition, in data set [2] (setting [10]), the “reduction of cortical infarct volume” value was determined as 60%. Further, the “reduction of striatal infarct volume” value in data set [2] (setting [10]) amounted to 60%. The “elevation of HIF-1α protein in olfactory bulb” value in data set [3] was “approximately 30 fold”. Moreover, in data set [3], the “elevation of HIF-1α protein in striatum” value was about 20 fold. Further, the “decrease in brain swelling” value in data set [5] amounted to 71%. The “decrease in cortical infarct volume” value in data set [5] was 72%. For the same molecule, the “decrease in total infarct volume” value in data set [5] (rats) was 56%. Further, the plasma half-life entry in data set [6] was “less than 10 minutes”. For the same molecule, the “effect of intravenous bolus injection” value in data set [7] is “causes acute hypotension”.
